In patent US11179412B2, “Methods of treating conditions involving elevated inflammatory response” (University of Pittsburgh—Of the Commonwealth System of …, priority 2017, dated 2021):
“Also recorded” adds a separate entry of the source.

Columns and labels:
[1] = test system: STING signaling (TBK1, IRF3, p65, ALK, EGFR, AKT phosphorylation) in RAW264.7 cells; test: Western blot of STING pathway protein phosphorylation, RAW264.7; type: cell-based, mouse; details: 10 μM
Protocol: (§1) For immunoblotting, cells were lysed in Cell Lysis Buffer (#9803, Cell Signaling Technology) with protease inhibitor cocktail (Promega), phosphatase inhibitor cocktail (Sigma), and 1 mM Na3VO4 (70). Cleared lysates were resolved by SDS-PAGE (#3450124, Bio-Rad) and then transferred onto PVDF membranes (#1704273, Bio-Rad). The membranes were blocked with Tris-buffered saline Tween 20 (TBST) containing 5% skim milk for 1 h at room temperature and then incubated with the indicated primary antibodies (1:1000-1:5000) overnight at 4° C. After being washed with TBST, the membranes were incubated with an HRP-linked anti-mouse IgG secondary antibody (#7076, Cell Signaling Technology) or HRP-linked anti-rabbit IgG secondary antibody (#7074, Cell Signaling Technology) for 1 h at room temperature. The membranes were washed three times in TBST and then visualized and analyzed with a ChemiDoc Touch Imaging System (#1708370, Bio-Rad). The intensities of bands were analyzed with Image Lab software.

[2] = test system: STING signaling (TBK1, IRF3, p65, ALK, EGFR, AKT phosphorylation) in THP1 cells; test: Western blot of STING pathway protein phosphorylation, THP1; type: cell-based, human; details: 10 μM
Protocol: as §1

IFNβ mRNA in THP1 cells = test: IFNβ mRNA Q-PCR, THP1 cells; type: cell-based, human; details: STING ligands 10 μg/ml, inhibitor 10 μM, 16 hours
Protocol: Total RNA was extracted using QIAGEN RNeasy Plus Kit according to the manufacturer's instructions. First-strand cDNA was synthesized from 1 μg of RNA using the iScript cDNA Synthesis kit (#1708890, Bio-Rad). Briefly, 20 μl reactions were prepared by combining 4 μl iScript Select reaction mix, 2 μl gene-specific enhancer solution, 1 μl reverse transcriptase, 1 μl gene-specific assay pool (20×, 2 μM), and 12 μl RNA diluted in RNase-free water. Quantitative real-time PCR was carried out using synthesized cDNA, primers, and SsoFast EvaGreen Supermix (#172-5204, Bio-Rad). The expression of target genes was calculated using the ddCt method relative to the expression of a house-keeping gene, β-actin. Data shown are the relative quantity (RQ), with RQ of the control cells set to one.

[3] = test system: LPS-induced endotoxemia in C57BL/6J mice; test: Endotoxemia model (LPS); type: in vivo, mouse
Protocol: LPS (Escherichia coli […], 10 mg/kg, #L4391, Sigma) was dissolved in PBS. Male or female C57BL/6J mice (eight- to 10-weeks old, 22 to 26 g weight) received a single oral dose of LDK378 (20 mg/kg) or vehicle, then an infusion of LPS (10 mg/kg, intraperitoneally) 60 minutes later. Mice were re-treated with LDK378 or vehicle six, 12, and 24 hours after LPS infusion.
Biochemical measurements of tissue enzymes (CK, AMYL, BUN, and ALT) in serum were performed using the IDEXX Catalyst Dx Chemistry Analyzer according to the manufacturer's protocol.
Tissues were embedded in optimum cutting temperature cryomedium (Sakura Finetek, Zoeterwoude, the Netherlands) and cut into 4 μm sections. The deparaffinized sections were then stained using the standard H&E method. The stained slides were observed using an EVOS FL Auto Cell Imaging System (Invitrogen), five fields per section and three sections per sample.

[4] = 3′3′-cGAMP 10 μg/ml, three to 16 hours
[5] = 3′3′-cGAMP or c-di-AMP 10 μg/ml, 16 hours
[6] = LPS 10 mg/kg, LDK378 20 mg/kg, 24 hours

Cc1cc(Nc2ncc(Cl)c(Nc3ccccc3S(=O)(=O)C(C)C)n2)c(OC(C)C)cc1C1CCNCC1 [LDK378, 5-chloro-N^2-(2-isopropoxy-5-methyl-4-(piperidin-4-yl)phenyl)-N^4-[2-(propane-2-sulfonyl)-phenyl]-pyrimidine-2,4-diamine]
3′3′-cGAMP-induced p-TBK1 [1, 4]: time-dependently reduced
STING ligand-induced phosphorylation of TBK1, IRF3, and p65 [1, 5]: diminished
3′3′-cGAMP-, c-di-AMP-, and DMXAA-induced p-IRF3 and p-p65 ([1]; ligand 10 μg/ml): inhibited
c-di-AMP- or DMXAA-induced p-TBK1 ([1]; ligand 10 μg/ml, 16 hours): inhibited
3′3′-cGAMP- or c-di-AMP-induced phosphorylation of ALK, EGFR, and AKT ([1]; ligand 10 μg/ml, 16 hours): attenuated
3′3′-cGAMP-induced p-TBK1 [2, 4]: time-dependently reduced
STING ligand-induced phosphorylation of TBK1, IRF3, and p65 [2, 5]: diminished
3′3′-cGAMP-, c-di-AMP-, and DMXAA-induced p-IRF3 and p-p65 ([2]; ligand 10 μg/ml): inhibited
c-di-AMP- or DMXAA-induced p-TBK1 ([2]; ligand 10 μg/ml, 16 hours): inhibited
3′3′-cGAMP- or c-di-AMP-induced phosphorylation of ALK, EGFR, and AKT ([2]; ligand 10 μg/ml, 16 hours): attenuated
STING ligand-induced IFNβ mRNA expression (IFNβ mRNA in THP1 cells): attenuation
endotoxemic lethality (LPS-induced animal death) ([3]; LPS 10 mg/kg i.p., LDK378 20 mg/kg): promoted similar protection; also recorded: conferred significant protection; also recorded: prevented
organ dysfunction (serum enzyme activity) ([3]; LPS 10 mg/kg, LDK378 20 mg/kg, 12-48 hours): promoted similar protection
endotoxemia-induced tissue injury (H&E) [3, 6]: promoted similar protection; also recorded: prevented
proinflammatory cytokine expression (mRNA) [3, 6]: promoted similar protection
proinflammatory cytokine release (serum antibody array) [3, 6]: promoted similar protection
top five downregulated circulating immune chemical mediators compared with control group ([3]; LPS 10 mg/kg, serum, 24 hours): EGF, CD14, CXCL1, endoglin, and CCL22
